Results from the supplement of paper PMC10307832.

Legend:
Assay in all cases: relative viability (nuclei count vs DMSO), 5 days (fraction); higher = more cells survive
NCI-H1915 = tested on: NCI-H1915
Procedure, shortened: (§1)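 Each reported value is a median over duplicate plates. It expresses relative viability: treated-well nuclei count divided by vehicle-well nuclei count. Lung cancer cell lines in 1536-well plates were dosed by pin tool a day after seeding, alone with one drug or with a fixed anchor-drug dose plus five library-drug doses (not always all listed) in √10 steps, and nuclei were counted after 5 days.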

NCI-H661 = tested on: NCI-H661
Procedure, shortened: as §1

NCI-H1355 = tested on: NCI-H1355
Procedure, shortened: as §1

NCI-H3122 = tested on: NCI-H3122
Procedure, shortened: as §1

NCI-H1563 = tested on: NCI-H1563
Procedure, shortened: as §1

NCI-H322M = tested on: NCI-H322M
Procedure, shortened: as §1

SW 900 = tested on: SW 900
Procedure, shortened: as §1

NCI-H460 = tested on: NCI-H460
Procedure, shortened: as §1

NCI-H1755 = tested on: NCI-H1755
Procedure, shortened: as §1

LXF-289 = tested on: LXF-289
Procedure, shortened: as §1

NCI-H441 = tested on: NCI-H441
Procedure, shortened: as §1

NCI-H1792 = tested on: NCI-H1792
Procedure, shortened: as §1

SK-MES-1 = tested on: SK-MES-1
Procedure, shortened: as §1

NCI-H1651 = tested on: NCI-H1651
Procedure, shortened: as §1

NCI-H520 = tested on: NCI-H520
Procedure, shortened: as §1

LCLC-103H = tested on: LCLC-103H
Procedure, shortened: as §1

RERF-LC-KJ = tested on: RERF-LC-KJ
Procedure, shortened: as §1

NCI-H2347 = tested on: NCI-H2347
Procedure, shortened: as §1

NCI-H522 = tested on: NCI-H522
Procedure, shortened: as §1

PC-14 = tested on: PC-14
Procedure, shortened: as §1

NCI-H596 = tested on: NCI-H596
Procedure, shortened: as §1

## COc1nc(C)cnc1NS(=O)(=O)c1cccnc1-c1ccc(-c2nnco2)cc1 [Zibotentan] + Nc1nc2[nH]cc(CCc3ccc(C(=O)N[C@@H](CCC(=O)O)C(=O)O)cc3)c2c(=O)[nH]1 [Pemetrexed] (partner 0.2 µM)
NCI-H1915; first compound 0.08 µM
  relative viability: 0.477
NCI-H1915; first compound 0.253 µM
  relative viability: 0.493
NCI-H1915; first compound 0.8 µM
  relative viability: 0.357
NCI-H1915; first compound 2.53 µM
  relative viability: 0.526
NCI-H661; first compound 0.08 µM
  relative viability: 0.931
NCI-H661; first compound 0.253 µM
  relative viability: 0.881
NCI-H661; first compound 0.8 µM
  relative viability: 0.873
NCI-H661; first compound 2.53 µM
  relative viability: 0.912
NCI-H1355; first compound 0.08 µM
  relative viability: 1.04
NCI-H1355; first compound 0.253 µM
  relative viability: 1.05
NCI-H1355; first compound 0.8 µM
  relative viability: 1.03
NCI-H1355; first compound 2.53 µM
  relative viability: 1.07
NCI-H3122; first compound 0.08 µM
  relative viability: 0.204
NCI-H3122; first compound 0.253 µM
  relative viability: 0.199
NCI-H3122; first compound 0.8 µM
  relative viability: 0.308
NCI-H3122; first compound 2.53 µM
  relative viability: 0.219
NCI-H1563; first compound 0.08 µM
  relative viability: 0.827
NCI-H1563; first compound 0.253 µM
  relative viability: 0.703
NCI-H1563; first compound 0.8 µM
  relative viability: 0.757
NCI-H1563; first compound 2.53 µM
  relative viability: 0.66
NCI-H322M; first compound 0.08 µM
  relative viability: 0.661
NCI-H322M; first compound 0.253 µM
  relative viability: 0.553
NCI-H322M; first compound 0.8 µM
  relative viability: 0.526
NCI-H322M; first compound 2.53 µM
  relative viability: 0.65
SW 900; first compound 0.08 µM
  relative viability: 0.503
SW 900; first compound 0.253 µM
  relative viability: 0.461
SW 900; first compound 0.8 µM
  relative viability: 0.656
SW 900; first compound 2.53 µM
  relative viability: 0.472
NCI-H460; first compound 0.08 µM
  relative viability: 0.0594
NCI-H460; first compound 0.253 µM
  relative viability: 0.0676
NCI-H460; first compound 0.8 µM
  relative viability: 0.0545
NCI-H460; first compound 2.53 µM
  relative viability: 0.0682
NCI-H1755; first compound 0.08 µM
  relative viability: 0.44
NCI-H1755; first compound 0.253 µM
  relative viability: 0.453
NCI-H1755; first compound 0.8 µM
  relative viability: 0.383
NCI-H1755; first compound 2.53 µM
  relative viability: 0.455
LXF-289; first compound 0.08 µM
  relative viability: 0.88
LXF-289; first compound 0.253 µM
  relative viability: 0.936
LXF-289; first compound 0.8 µM
  relative viability: 0.854
LXF-289; first compound 2.53 µM
  relative viability: 0.916
NCI-H441; first compound 0.08 µM
  relative viability: 0.284
NCI-H441; first compound 0.253 µM
  relative viability: 0.298
NCI-H441; first compound 0.8 µM
  relative viability: 0.262
NCI-H441; first compound 2.53 µM
  relative viability: 0.249
NCI-H1792; first compound 0.08 µM
  relative viability: 0.911
NCI-H1792; first compound 0.253 µM
  relative viability: 0.662
NCI-H1792; first compound 0.8 µM
  relative viability: 0.813
NCI-H1792; first compound 2.53 µM
  relative viability: 1.14
SK-MES-1; first compound 0.08 µM
  relative viability: 0.953
SK-MES-1; first compound 0.253 µM
  relative viability: 0.815
SK-MES-1; first compound 0.8 µM
  relative viability: 0.827
SK-MES-1; first compound 2.53 µM
  relative viability: 1.03
NCI-H1651; first compound 0.08 µM
  relative viability: 0.594
NCI-H1651; first compound 0.253 µM
  relative viability: 0.581
NCI-H1651; first compound 0.8 µM
  relative viability: 0.578
NCI-H1651; first compound 2.53 µM
  relative viability: 0.539
NCI-H520; first compound 0.08 µM
  relative viability: 0.626
NCI-H520; first compound 0.253 µM
  relative viability: 0.665
NCI-H520; first compound 0.8 µM
  relative viability: 0.682
NCI-H520; first compound 2.53 µM
  relative viability: 0.695
LCLC-103H; first compound 0.08 µM
  relative viability: 0.428
LCLC-103H; first compound 0.253 µM
  relative viability: 0.471
LCLC-103H; first compound 0.8 µM
  relative viability: 0.429
LCLC-103H; first compound 2.53 µM
  relative viability: 0.533
RERF-LC-KJ; first compound 0.08 µM
  relative viability: 0.5
RERF-LC-KJ; first compound 0.253 µM
  relative viability: 0.464
RERF-LC-KJ; first compound 0.8 µM
  relative viability: 0.438
RERF-LC-KJ; first compound 2.53 µM
  relative viability: 0.481
NCI-H2347; first compound 0.08 µM
  relative viability: 0.416
NCI-H2347; first compound 0.253 µM
  relative viability: 0.463
NCI-H2347; first compound 0.8 µM
  relative viability: 0.465
NCI-H2347; first compound 2.53 µM
  relative viability: 0.471
NCI-H522; first compound 0.08 µM
  relative viability: 0.909
NCI-H522; first compound 0.253 µM
  relative viability: 1.03
NCI-H522; first compound 0.8 µM
  relative viability: 0.881
NCI-H522; first compound 2.53 µM
  relative viability: 0.758
PC-14; first compound 0.08 µM
  relative viability: 0.143
PC-14; first compound 0.253 µM
  relative viability: 0.12
PC-14; first compound 0.8 µM
  relative viability: 0.129
PC-14; first compound 2.53 µM
  relative viability: 0.144
NCI-H596; first compound 0.08 µM
  relative viability: 0.455
NCI-H596; first compound 0.253 µM
  relative viability: 0.429
NCI-H596; first compound 0.8 µM
  relative viability: 0.522
NCI-H596; first compound 2.53 µM
  relative viability: 0.501
